Data reported in ChEMBL document CHEMBL5046288, “Design, Synthesis, and Bioevaluation of 2-Aminopteridin-7(8H)-one Derivatives as Novel Potent Adenosine A2A Receptor Antagonists for Cancer Immunotherapy” (J Med Chem, 2022).
Calls of active or inactive are those of the source. The rule behind the calls is not given here.

Key:
Adenosine receptor A2a [1] = molecular target: T1, Adenosine receptor A2a (Homo sapiens, UniProt P29274); assay: Antagonist activity at human A2aR expressed in HEK293 cells assessed as reduction in cAMP production incubated for 60 mins by ultra LANCE cAMP detection assay; format: functional, cell-based
T1 sequence (P29274 whole entry): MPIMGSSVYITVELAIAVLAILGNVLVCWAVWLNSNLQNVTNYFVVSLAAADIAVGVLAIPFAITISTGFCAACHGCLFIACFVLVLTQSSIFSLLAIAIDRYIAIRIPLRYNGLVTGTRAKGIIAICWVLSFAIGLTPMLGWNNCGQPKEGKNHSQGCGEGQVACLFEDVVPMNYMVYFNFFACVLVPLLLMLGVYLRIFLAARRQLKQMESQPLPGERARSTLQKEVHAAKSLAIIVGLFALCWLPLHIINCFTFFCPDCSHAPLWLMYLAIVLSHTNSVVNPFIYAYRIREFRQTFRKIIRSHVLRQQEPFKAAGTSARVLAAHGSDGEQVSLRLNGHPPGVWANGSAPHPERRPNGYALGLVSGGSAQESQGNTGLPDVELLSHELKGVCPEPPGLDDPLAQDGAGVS

[2] = Metabolic stability in mouse liver microsomes assessed as half life at […] measured up to 60 mins in presence of NADPH by HPLC-MS/MS analysis; format: ADME, Microsome
Homo sapiens [3] = species: Homo sapiens; assay: Selectivity ratio of IC50 for human A3R to IC50 for human A2aR
Homo sapiens [4] = species: Homo sapiens; assay: Selectivity ratio of IC50 for human A1R to IC50 for human A2aR
Jurkat = assay: Upregulation of NECA-suppressed IL-2 mRNA level in Ion/PMA-activated human Jurkat T cells at 10 uM by Q-PCR analysis; format: functional, cell-based
HCT-116 [5] = assay: Cytotoxicity against human HCT116 cells assessed as reduction in cell viability incubated for 24 hrs by MTS assay; format: toxicity, cell-based; details: hct-116, 24 h
Adenosine receptor A2a [6] = molecular target: T1, Adenosine receptor A2a; assay: Antagonist activity at human A2aR expressed in HEK293 cells assessed as reduction in NECA-induced cAMP production incubated for 20 mins in presence of 1 uM NECA by ultra LANCE cAMP detection assay; format: functional, cell-based
Adenosine receptor A2a [7] = molecular target: T1, Adenosine receptor A2a; assay: Antagonist activity at human A2aR expressed in HEK293 cells assessed as reduction in NECA-induced cAMP production incubated for 20 mins in presence of 40 nM NECA by ultra LANCE cAMP detection assay; format: functional, cell-based
[8] = Upregulation of NECA-suppressed IL-2 protein level in Ion/PMA-activated human Jurkat T cells at 10 uM by Western blotting analysis; format: functional
Adenosine receptor A2a [9] = molecular target: T1, Adenosine receptor A2a; assay: Antagonist activity at human A2aR expressed in HEK293 cells assessed as reduction in NECA-induced cAMP production incubated for 20 mins in presence of 20 nM NECA by GloSensor cAMP detection assay; format: functional, cell-based
Homo sapiens [10] = species: Homo sapiens; assay: Selectivity ratio of IC50 for human A2BR to IC50 for human A2aR
MC-38 = assay: Cytotoxicity against mouse MC38 cells assessed as reduction in cell viability incubated for 24 hrs by MTS assay; format: toxicity, cell-based; details: mc-38, 24 h
HCT-116 [11] = assay: Cytotoxicity against human HCT-116 cells co-cultured with Ion/PMA-activated human Jurkat T cells assessed as reversal of NECA-induced suppression of cytotoxic function of Jurkat T cell by measuring survival rate at E:T ratio of 6:1 at 10 uM measured after 48 hrs by crystal violet staining based colony assay; format: functional

Row | IC50 (Adenosine receptor A2a [1]) [µM] | SMILES | further results
1 | > 10 | COc1ccc(N(C)C2CCN(CCn3c(=O)cnc4c(-c5ccc(C)o5)nc(N)nc43)C2)cc1 (centres undefined) | 
2 | 0.0049 | COc1ccc(N2CCN(CCn3c(=O)cnc4c(-c5ccc(C)o5)nc(N)nc43)CC2)c(F)c1 | half-life [2]: 5.1 min
3 | 0.0637 | Cc1ccc(-c2nc(N)nc3c2ncc(=O)n3CCN2CCN(c3ccc(OC(F)F)cc3)CC2)o1 | 
4 | 0.224 | COc1ccc(N2CCN(CCn3c(=O)cnc4c(-c5ccc(C)o5)nc(N)nc43)C[C@@H]2C)cc1 | 
5 | > 10 | Cc1ccc(-c2nc(N)nc3c2ncc(=O)n3CCN2CCN(c3cccc(OC(F)(F)F)c3)CC2)o1 | 
6 | > 10 | COc1ccc(Cn2c(=O)cnc3c(-c4ccc(C)o4)nc(N)nc32)cc1 | 
7 | 0.98 | Cc1ccc(-c2nc(N)nc3c2ncc(=O)n3CCCCc2ccccc2)o1 | 
8 | 0.0588 | Cc1ccc(-c2nc(N)nc3c2ncc(=O)n3CCN2CCN(c3ccc(F)cc3)CC2)o1 | 
9 | > 10 | COc1ccc(N(C)C2CN(CCn3c(=O)cnc4c(-c5ccc(C)o5)nc(N)nc43)C2)cc1 | 
10 | > 10 | Cc1ccc(-c2nc(N)nc3c2CCN(Cc2ccccc2)C3)o1 | 
11 | > 10 | Cc1ccc(-c2nc(N)nc3c2ncc(=O)n3CC2CCN(c3ccccc3)CC2)o1 | 
12 | 0.0295 | COc1ccc(N2CCN(CCn3c(=O)cnc4c(-c5ccc(C)o5)nc(N)nc43)CC2)cn1 | 
13 | 0.176 | Cc1ccc(-c2nc(N)nc3c2ncc(=O)n3CCN2CCN(c3ccc(C(F)(F)F)cc3)CC2)o1 | 
14 | 0.482 | Cc1ccc(-c2nc(N)nc3c2ncc(=O)n3Cc2ccccc2)o1 | 
15 | 0.555 | COc1ccc(N2CC3CCC(C2)N3CCn2c(=O)cnc3c(-c4ccc(C)o4)nc(N)nc32)cc1 | 
16 | 0.021 | Cc1ccc(-c2nc(N)nc3c2ncc(=O)n3CCN2CCN(c3ccc(OC(F)F)cc3F)CC2)o1 | 
17 | 0.0865 | Cc1ccc(-c2nc(N)nc3c2ncc(=O)n3CCN2CCN(c3ccc(F)cc3Cl)CC2)o1 | 
18 | 1.01 | Cc1ccc(-c2nc(N)nc3c2ncc(=O)n3CC2CC2)o1 | 
19 | 3.81 | COc1ccccc1N1CCN(CCn2c(=O)cnc3c(-c4ccc(C)o4)nc(N)nc32)CC1 | 
20 | 1.88 | Cc1ccc(-c2nc(N)nc3c2ncc(=O)n3CC2CCCCC2)o1 | 
21 | 0.0093 | COCCOc1ccc(N2CCN(CCn3c(=O)cnc4c(-c5ccc(C)o5)nc(N)nc43)CC2)c(F)c1F | 
22 | 0.476 | COc1cccc(Cn2c(=O)cnc3c(-c4ccc(C)o4)nc(N)nc32)c1 | 
23 | 2.02 | COc1ccc(N2C[C@H](C)N(CCn3c(=O)cnc4c(-c5ccc(C)o5)nc(N)nc43)C[C@H]2C)cc1 | 

Row | IC50 (Adenosine receptor A2a [1]) [µM] | SMILES | further results
24 | 0.712 | Cc1ccc(-c2nc(N)nc3c2ncc(=O)n3CCCc2ccccc2)o1 | 
25 | 0.0575 | Cc1ccc(-c2nc(N)nc3c2ncc(=O)n3CCN2CCN(c3cccc(F)c3)CC2)o1 | 
26 | 0.605 | Cc1ccc(-c2nc(N)nc3c2ncc(=O)n3CCN2CCN(c3ccc(Oc4ccccc4)cc3)CC2)o1 | 
27 | > 10 | Cc1ccc(-c2nc(N)nc3c2ncc(=O)n3CCN2CCN(C)CC2)o1 | 
28 | 0.0085 | Cc1ccc(-c2nc(N)nc3c2ncc(=O)n3CCN2CCN(c3ccc(F)cc3F)CC2)o1 | 
29 | 2.17 | Cc1ccc(-c2nc(N)nc3c2ncc(=O)n3Cc2ccco2)o1 | 
30 | 0.0238 | COCCOc1ccc(N2CCN(CCn3c(=O)cnc4c(-c5ccc(C)o5)nc(N)nc43)CC2)cc1 | 
31 | 0.213 | COc1ccc(N2CCN(CCn3c(=O)cnc4c(-c5ccc(C)o5)nc(N)nc43)CC2)nc1 | 
32 | > 10 | Cc1ccc(-c2nc(N)nc3c2ncc(=O)n3CCN2CCN(c3ccccc3OC(F)(F)F)CC2)o1 | 
33 | 1.03 | Cc1ccc(-c2nc(N)nc3c2[nH]c(=O)n3Cc2ccccc2)o1 | 
34 | 0.0117 | Cc1ccc(-c2nc(N)nc3c2ncc(=O)n3CCN2CCN(c3ccccc3F)CC2)o1 | 
35 | 0.0375 | COc1ccc(N2CCN(CCn3c(=O)cnc4c(-c5ccc(C)o5)nc(N)nc43)C[C@H]2C)cc1 | 
36 | 0.12 | Cc1ccc(-c2nc(N)nc3c2ncc(=O)n3CCN2CCN(c3ccc(OC(F)(F)F)cc3)CC2)o1 | 
37 | 0.388 | Cc1ccc(-c2nc(N)nc3c2ncc(=O)n3CCN2CCC(c3ccccc3)CC2)o1 | 
38 | 0.0083 | COc1ccc(N2CCN(CCn3c(=O)cnc4c(-c5ccc(C)o5)nc(N)nc43)[C@@H](C)C2)c(F)c1 | Ratio IC50 (Homo sapiens [3]): > 1000; Ratio IC50 (Homo sapiens [4]): > 1000; Activity (Jurkat): inactive; Activity (HCT-116 [5]): Non-Toxic; half-life [2]: 38.5 min; IC50 (Adenosine receptor A2a [6]): 0.18 µM; IC50 (Adenosine receptor A2a [7]): 0.0083 µM; fold change (FC) [8]: 3.77; IC50 (Adenosine receptor A2a [9]): 0.0066 µM; Ratio IC50 (Homo sapiens [10]): > 1000; Activity (MC-38): Non-Toxic; Activity (HCT-116 [11]): 48.6%
39 | > 10 | COc1ccc(N2CCC(N(C)CCn3c(=O)cnc4c(-c5ccc(C)o5)nc(N)nc43)C2)cc1 (centres undefined) | 
40 | > 10 | Cc1ccc(-c2nc(N)nc3c2NC(=O)CN3Cc2ccccc2)o1 | 
41 | > 10 | Cc1ccc(-c2nc(N)nc3c2ncc(=O)n3CCN2CCN(C3CCCC3)CC2)o1 | 
42 | > 10 | COc1ccc(N2C[C@@H]3C[C@H]2CN3CCn2c(=O)cnc3c(-c4ccc(C)o4)nc(N)nc32)cc1 | 
43 | 0.716 | COc1ccc(N2CCCN(CCn3c(=O)cnc4c(-c5ccc(C)o5)nc(N)nc43)CC2)cc1 | 
44 | 0.0055 | COc1cnc(N2CCN(CCn3c(=O)cnc4c(-c5ccc(C)o5)nc(N)nc43)CC2)c(F)c1 | 
45 | > 10 | Cc1ccc(-c2nc(N)nc3c2ncc(=O)n3Cc2cccc(C(F)(F)F)c2)o1 | 
46 | 2.83 | Cc1ccc(-c2nc(N)nc3c2n(C)c(=O)n3Cc2ccccc2)o1 | 
